Data reported in patent publication US9260439B2, “Dihydropyrrolopyrimidine derivatives” (PFIZER INC., priority 2014, dated 2016).

Target: truncated PI3Kα (p110α/iSH2 p85α) (Homo sapiens (Human), UniProt P42336)
Test: PI3KA_Act fluorescence polarization kinase assay (Ki)
Assay type: biochemical
Conditions: 1 mM ATP
Procedure, shortened: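 Ki values result from fitting fluorescence polarization signals to the Morrison equation for tight-binding competitive inhibitors. The detector was GST-Grp1 PH domain with TAMRA-PIP3, read after a 30 min room-temperature reaction of 0.5 nM truncated PI3Kα and 30 μM PIP2 at pH 7.4 in HEPES/NaCl/MgCl2/DTT/CHAPS buffer. Compounds were tested as 12-point 3-fold dilutions from 3 μM.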

Chain of truncated PI3Kα (p110α/iSH2 p85α) (P42336 whole entry, the tested form may be a part): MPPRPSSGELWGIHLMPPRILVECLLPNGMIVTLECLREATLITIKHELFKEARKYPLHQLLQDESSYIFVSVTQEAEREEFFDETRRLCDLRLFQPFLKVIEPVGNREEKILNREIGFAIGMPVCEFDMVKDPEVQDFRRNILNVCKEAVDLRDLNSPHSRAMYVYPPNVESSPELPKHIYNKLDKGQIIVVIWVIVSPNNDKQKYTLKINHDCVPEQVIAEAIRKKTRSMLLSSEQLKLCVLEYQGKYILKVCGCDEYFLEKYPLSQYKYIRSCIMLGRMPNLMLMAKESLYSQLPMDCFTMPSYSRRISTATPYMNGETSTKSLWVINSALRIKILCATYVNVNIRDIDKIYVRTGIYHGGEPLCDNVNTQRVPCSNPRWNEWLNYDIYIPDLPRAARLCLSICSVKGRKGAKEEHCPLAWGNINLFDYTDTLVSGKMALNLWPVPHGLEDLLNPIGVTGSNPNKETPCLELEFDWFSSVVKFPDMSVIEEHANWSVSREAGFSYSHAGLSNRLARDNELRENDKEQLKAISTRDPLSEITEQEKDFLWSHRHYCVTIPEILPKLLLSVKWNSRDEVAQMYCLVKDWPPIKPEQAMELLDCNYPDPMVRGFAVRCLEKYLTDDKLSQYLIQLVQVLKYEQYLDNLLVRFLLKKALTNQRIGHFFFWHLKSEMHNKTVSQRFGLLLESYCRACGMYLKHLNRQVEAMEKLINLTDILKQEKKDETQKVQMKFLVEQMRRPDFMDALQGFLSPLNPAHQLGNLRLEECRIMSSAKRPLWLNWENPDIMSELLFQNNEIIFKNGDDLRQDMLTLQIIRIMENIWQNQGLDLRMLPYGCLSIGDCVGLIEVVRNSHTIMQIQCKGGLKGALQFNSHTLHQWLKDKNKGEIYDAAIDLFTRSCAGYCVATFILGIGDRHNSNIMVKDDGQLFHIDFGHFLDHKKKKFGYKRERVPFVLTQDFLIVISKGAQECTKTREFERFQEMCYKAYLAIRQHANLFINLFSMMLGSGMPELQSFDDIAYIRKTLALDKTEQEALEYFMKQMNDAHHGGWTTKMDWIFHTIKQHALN

SMILES	PI3KA_Act Ki
CC(C)C(=O)N1CC(N2CCc3c(-c4cnc(N)nc4)nc(N4CCOC[C@@H]4C)nc32)C1 [Example 453, 1-(3-{4-(2-aminopyrimidin-5-yl)-2-[(3S)-3-methylmorpholin-4-yl]-5,6-dihydro-7H-pyrrolo[2,3-d]pyrimidin-7-yl}azetidin-1-yl)-2-methylpropan-1-one]	0.973 nM
C[C@H]1COCCN1c1nc(-c2cnc(N)nc2)c2c(n1)N(C1CN(C(=O)C(C)(C)O)C1)CC2 [Example 454, 1-(3-{4-(2-aminopyrimidin-5-yl)-2-[(3S)-3-methylmorpholin-4-yl]-5,6-dihydro-7H-pyrrolo[2,3-d]pyrimidin-7-yl}azetidin-1-yl)-2-hydroxy-2-methylpropan-1-one]	0.387 nM
C[C@H]1COCCN1c1nc(-c2cnc(N)nc2)c2c(n1)N(C1(C)CN(C(=O)C(C)(C)O)C1)CC2 [Example 455, 1-(3-{4-(2-aminopyrimidin-5-yl)-2-[(3S)-3-methylmorpholin-4-yl]-5,6-dihydro-7H-pyrrolo[2,3-d]pyrimidin-7-yl}-3-methylazetidin-1-yl)-2-hydroxy-2-methylpropan-1-one]	0.187 nM
C[C@H]1COCCN1c1nc(-c2cnc(N)nc2)c2c(n1)N(C1(C)CN(C(=O)C(C)(C)N)C1)CC2.Cl [Example 456, 2-amino-1-(3-{4-(2-aminopyrimidin-5-yl)-2-[(3S)-3-methylmorpholin-4-yl]-5,6-dihydro-7H-pyrrolo[2,3-d]pyrimidin-7-yl}-3-methylazetidin-1-yl)-2-methylpropan-1-one hydrochloride]	0.063 nM
CCC(=O)NCC(=O)N1CC(N2CCc3c(-c4cnc(N)nc4)nc(N4CCOC[C@@H]4C)nc32)C1 [Example 457, N-[2-(3-{4-(2-aminopyrimidin-5-yl)-2-[(3S)-3-methylmorpholin-4-yl]-5,6-dihydro-7H-pyrrolo[2,3-d]pyrimidin-7-yl}azetidin-1-yl)-2-oxoethyl]propanamide]	0.691 nM
C[C@H]1COCCN1c1nc(-c2cnc(N)nc2)c2c(n1)N(C1CN(C(=O)C3(C)CC3)C1)CC2 [Example 458, (3-{4-(2-aminopyrimidin-5-yl)-2-[(3S)-3-methylmorpholin-4-yl]-5,6-dihydro-7H-pyrrolo[2,3-d]pyrimidin-7-yl}azetidin-1-yl)(1-methylcyclopropyl)methanone]	0.159 nM
C[C@H]1COCCN1c1nc(-c2cnc(N)nc2)c2c(n1)N(C1(C)CN(C(=O)C3(C)CC3)C1)CC2 [Example 459, (3-{4-(2-aminopyrimidin-5-yl)-2-[(3S)-3-methylmorpholin-4-yl]-5,6-dihydro-7H-pyrrolo[2,3-d]pyrimidin-7-yl}-3-methylazetidin-1-yl)(1-methylcyclopropyl)methanone]	0.057 nM
COC(=O)N1CC(C)(N2CCc3c(-c4cnc(N)nc4)nc(N4CCOC[C@@H]4C)nc32)C1 [Example 460, methyl 3-{4-(2-aminopyrimidin-5-yl)-2-[(3S)-3-methylmorpholin-4-yl]-5,6-dihydro-7H-pyrrolo[2,3-d]pyrimidin-7-yl}-3-methylazetidine-1-carboxylate]	0.047 nM
C[C@H]1COCCN1c1nc(-c2cnc(N)nc2)c2c(n1)N(C1(C)CN(C(=O)OC(C)(C)C)C1)CC2 [Example 461, tert-butyl 3-{4-(2-aminopyrimidin-5-yl)-2-[(3S)-3-methylmorpholin-4-yl]-5,6-dihydro-7H-pyrrolo[2,3-d]pyrimidin-7-yl}-3-methylazetidine-1-carboxylate]	0.040 nM
CNC(=O)N1CC(C)(N2CCc3c(-c4cnc(N)nc4)nc(N4CCOC[C@@H]4C)nc32)C1 [Example 462, 3-{4-(2-aminopyrimidin-5-yl)-2-[(3S)-3-methylmorpholin-4-yl]-5,6-dihydro-7H-pyrrolo[2,3-d]pyrimidin-7-yl}-N,3-dimethylazetidine-1-carboxamide]	0.057 nM
C[C@H]1COCCN1c1nc(-c2cnc(N)nc2)c2c(n1)N(C1CN(S(=O)(=O)C3CCC3)C1)CC2 [Example 463, 5-{7-[1-(cyclobutylsulfonyl)azetidin-3-yl]-2-[(3S)-3-methylmorpholin-4-yl]-6,7-dihydro-5H-pyrrolo[2,3-d]pyrimidin-4-yl}pyrimidin-2-amine]	0.169 nM
C[C@H]1COCCN1c1nc(-c2cnc(N)nc2)c2c(n1)N(C1CN(S(=O)(=O)N3CCC3)C1)CC2 [Example 464, 5-{7-[1-(azetidin-1-ylsulfonyl)azetidin-3-yl]-2-[(3S)-3-methylmorpholin-4-yl]-6,7-dihydro-5H-pyrrolo[2,3-d]pyrimidin-4-yl}pyrimidin-2-amine]	0.193 nM
C[C@H]1COCCN1c1nc(-c2cnc(N)nc2)c2c(n1)N([C@@]1(C)CCNC1)CC2.Cl [Example 465, 5-{2-[(3S)-3-methylmorpholin-4-yl]-7-[(3S)-3-methylpyrrolidin-3-yl]-6,7-dihydro-5H-pyrrolo[2,3-d]pyrimidin-4-yl}pyrimidin-2-amine hydrochloride]	0.160 nM
C[C@H]1COCCN1c1nc(-c2cnc(N)nc2)c2c(n1)N([C@]1(C)CCNC1)CC2.Cl [Example 466, 5-{2-[(3S)-3-methylmorpholin-4-yl]-7-[(3R)-3-methylpyrrolidin-3-yl]-6,7-dihydro-5H-pyrrolo[2,3-d]pyrimidin-4-yl}pyrimidin-2-amine hydrochloride]	0.303 nM
C[C@@H]1CNC[C@@]1(C)N1CCc2c(-c3cnc(N)nc3)nc(N3CCOC[C@@H]3C)nc21.Cl [Example 467, 5-{7-[(3S,4R)-3,4-dimethylpyrrolidin-3-yl]-2-[(3S)-3-methylmorpholin-4-yl]-6,7-dihydro-5H-pyrrolo[2,3-d]pyrimidin-4-yl}pyrimidin-2-amine hydrochloride]	0.106 nM
C[C@H]1COCCN1c1nc(-c2cnc(N)nc2)c2c(n1)N([C@@]1(C)CNC[C@@H]1C)CC2.Cl [Example 468, 5-{7-[(3R,4S)-3,4-dimethylpyrrolidin-3-yl]-2-[(3S)-3-methylmorpholin-4-yl]-6,7-dihydro-5H-pyrrolo[2,3-d]pyrimidin-4-yl}pyrimidin-2-amine hydrochloride]	0.634 nM
CC(=O)N1CC[C@](C)(N2CCc3c(-c4cnc(N)nc4)nc(N4CCOC[C@@H]4C)nc32)C1 [Example 469, 1-[(3S)-3-{4-(2-aminopyrimidin-5-yl)-2-[(3S)-3-methylmorpholin-4-yl]-5,6-dihydro-7H-pyrrolo[2,3-d]pyrimidin-7-yl}-3-methylpyrrolidin-1-yl]ethanone]	0.052 nM
CC(=O)N1CC[C@@](C)(N2CCc3c(-c4cnc(N)nc4)nc(N4CCOC[C@@H]4C)nc32)C1 [Example 470, 1-[(3R)-3-{4-(2-aminopyrimidin-5-yl)-2-[(3S)-3-methylmorpholin-4-yl]-5,6-dihydro-7H-pyrrolo[2,3-d]pyrimidin-7-yl}-3-methylpyrrolidin-1-yl]ethanone]	0.070 nM
C[C@@H](O)C(=O)N1CC[C@](C)(N2CCc3c(-c4cnc(N)nc4)nc(N4CCOC[C@@H]4C)nc32)C1 [Example 471, (2R)-1-[(3S)-3-{4-(2-aminopyrimidin-5-yl)-2-[(3S)-3-methylmorpholin-4-yl]-5,6-dihydro-7H-pyrrolo[2,3-d]pyrimidin-7-yl}-3-methylpyrrolidin-1-yl]-2-hydroxypropan-1-one]	0.037 nM
CC(C)[C@@H](O)C(=O)N1CC[C@](C)(N2CCc3c(-c4cnc(N)nc4)nc(N4CCOC[C@@H]4C)nc32)C1 [Example 472, (2R)-1-[(3S)-3-{4-(2-aminopyrimidin-5-yl)-2-[(3S)-3-methylmorpholin-4-yl]-5,6-dihydro-7H-pyrrolo[2,3-d]pyrimidin-7-yl}-3-methylpyrrolidin-1-yl]-2-hydroxy-3-methylbutan-1-one]	0.044 nM
C[C@H]1COCCN1c1nc(-c2cnc(N)nc2)c2c(n1)N([C@@]1(C)CCN(C(=O)C(C)(C)O)C1)CC2 [Example 473, 1-[(3S)-3-{4-(2-aminopyrimidin-5-yl)-2-[(3S)-3-methylmorpholin-4-yl]-5,6-dihydro-7H-pyrrolo[2,3-d]pyrimidin-7-yl}-3-methylpyrrolidin-1-yl]-2-hydroxy-2-methylpropan-1-one]	0.076 nM
C[C@H]1COCCN1c1nc(-c2cnc(N)nc2)c2c(n1)N([C@@]1(C)CCN(C(=O)C(C)(C)CO)C1)CC2.Cl [Example 474, 1-[(3S)-3-{4-(2-aminopyrimidin-5-yl)-2-[(3S)-3-methylmorpholin-4-yl]-5,6-dihydro-7H-pyrrolo[2,3-d]pyrimidin-7-yl}-3-methylpyrrolidin-1-yl]-3-hydroxy-2,2-dimethylpropan-1-one hydrochloride]	0.045 nM
C[C@H](N)C(=O)N1CC[C@](C)(N2CCc3c(-c4cnc(N)nc4)nc(N4CCOC[C@@H]4C)nc32)C1.Cl [Example 475, (2S)-2-amino-1-[(3S)-3-{4-(2-aminopyrimidin-5-yl)-2-[(3S)-3-methylmorpholin-4-yl]-5,6-dihydro-7H-pyrrolo[2,3-d]pyrimidin-7-yl}-3-methylpyrrolidin-1-yl]propan-1-one hydrochloride]	0.068 nM
C[C@@H](N)C(=O)N1CC[C@](C)(N2CCc3c(-c4cnc(N)nc4)nc(N4CCOC[C@@H]4C)nc32)C1.Cl [Example 476, (2R)-2-amino-1-[(3S)-3-{4-(2-aminopyrimidin-5-yl)-2-[(3S)-3-methylmorpholin-4-yl]-5,6-dihydro-7H-pyrrolo[2,3-d]pyrimidin-7-yl}-3-methylpyrrolidin-1-yl]propan-1-one hydrochloride]	<0.018 nM
